The record followed here is patent US11780830B2, “Triazolone derivatives or salts thereof and pharmaceutical compositions comprising the same” (YUHAN CORPORATION, priority 2018, dated 2023).

Where a name gives a salt, the structure may show the parent alone. Some results are limits rather than exact numbers.

Holding throughout (type): biochemical
The target of one assay is T1, recombinant human VAP-1 (Homo sapiens, UniProt Q16853).
T1 construct: purchased R&D systems
T1 sequence (Q16853 1-763): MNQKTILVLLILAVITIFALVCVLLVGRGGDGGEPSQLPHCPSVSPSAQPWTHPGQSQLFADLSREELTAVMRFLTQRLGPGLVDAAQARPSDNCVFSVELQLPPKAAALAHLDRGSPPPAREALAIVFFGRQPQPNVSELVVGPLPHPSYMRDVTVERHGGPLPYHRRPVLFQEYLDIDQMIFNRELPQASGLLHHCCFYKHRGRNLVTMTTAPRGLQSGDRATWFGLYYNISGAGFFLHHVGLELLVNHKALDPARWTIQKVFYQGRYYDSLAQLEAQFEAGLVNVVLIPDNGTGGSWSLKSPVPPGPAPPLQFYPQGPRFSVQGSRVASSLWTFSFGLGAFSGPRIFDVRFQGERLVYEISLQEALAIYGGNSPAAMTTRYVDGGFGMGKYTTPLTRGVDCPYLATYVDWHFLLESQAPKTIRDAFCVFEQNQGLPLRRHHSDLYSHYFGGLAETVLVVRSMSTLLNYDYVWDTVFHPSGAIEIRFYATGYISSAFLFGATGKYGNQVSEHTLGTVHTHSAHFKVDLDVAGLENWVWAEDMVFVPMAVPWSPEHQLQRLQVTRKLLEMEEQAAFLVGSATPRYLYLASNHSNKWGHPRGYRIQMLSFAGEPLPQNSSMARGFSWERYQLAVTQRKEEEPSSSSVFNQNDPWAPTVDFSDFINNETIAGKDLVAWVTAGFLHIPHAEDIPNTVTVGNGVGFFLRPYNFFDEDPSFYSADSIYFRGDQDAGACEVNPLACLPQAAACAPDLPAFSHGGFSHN
Put plainly: Activity on recombinant human VAP-1, HRP-coupled Amplex Red hydrogen peroxide assay. The settings on record: substrate 1 mM benzylamine; compound incubated with enzyme at 37° C. for 30 minutes; pH 7.4; read-out: Inhibitory Activity (IC50, nM) human VAP-1. In short, it runs like this:
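H2O2 generation from 1 mM benzylamine was coupled via 1 U/mL HRP to 200 uM Amplex Red; inhibitors, serially diluted 1:3 over 8 points with under 1% final DMSO, had been preincubated 30 min at 37 °C. IC50 from percentage drop in rate.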

Assay [1] addresses T2, recombinant human MAO-A (monoamine oxidase-A) (Homo sapiens, UniProt P21397).
T2 construct: purchased Sigma-Aldrich
T2 sequence (P21397 1-527): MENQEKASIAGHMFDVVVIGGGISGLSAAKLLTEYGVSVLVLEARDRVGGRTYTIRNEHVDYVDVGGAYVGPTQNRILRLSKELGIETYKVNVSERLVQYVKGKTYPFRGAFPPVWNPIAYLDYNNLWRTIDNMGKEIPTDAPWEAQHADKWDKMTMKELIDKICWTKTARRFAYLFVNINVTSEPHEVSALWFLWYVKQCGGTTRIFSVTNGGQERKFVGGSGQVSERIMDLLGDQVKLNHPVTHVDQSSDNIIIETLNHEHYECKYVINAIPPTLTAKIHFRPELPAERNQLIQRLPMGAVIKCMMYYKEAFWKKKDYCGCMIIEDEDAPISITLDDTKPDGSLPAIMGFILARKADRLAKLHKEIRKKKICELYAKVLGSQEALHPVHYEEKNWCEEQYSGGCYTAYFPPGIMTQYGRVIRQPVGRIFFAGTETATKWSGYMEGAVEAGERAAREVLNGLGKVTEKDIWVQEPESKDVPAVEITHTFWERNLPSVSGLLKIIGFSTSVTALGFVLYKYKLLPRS
Put plainly: Activity on recombinant human MAO-A, method similar to the VAP-1 assay. The settings on record: substrate 0.5 mM tyramine; read-out: Inhibitory Activity (IC50, nM) MAO-A. In short, it runs like this: (§1)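 First, serially diluted compounds were incubated with recombinant enzyme in 50 mM sodium phosphate, pH 7.4, for 30 min at 37° C. Next, Amplex Red (200 uM), HRP (1 U/mL) and tyramine (0.5 mM, MAO-A) or benzylamine (1 mM, MAO-B) were added. Then fluorescence was monitored over 1-2 h and IC50 fitted.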

In assay [2] the target is T3, recombinant human MAO-B (monoamine oxidase-B) (Homo sapiens, UniProt P27338).
T3 construct: purchased Sigma-Aldrich
T3 sequence (P27338 1-520): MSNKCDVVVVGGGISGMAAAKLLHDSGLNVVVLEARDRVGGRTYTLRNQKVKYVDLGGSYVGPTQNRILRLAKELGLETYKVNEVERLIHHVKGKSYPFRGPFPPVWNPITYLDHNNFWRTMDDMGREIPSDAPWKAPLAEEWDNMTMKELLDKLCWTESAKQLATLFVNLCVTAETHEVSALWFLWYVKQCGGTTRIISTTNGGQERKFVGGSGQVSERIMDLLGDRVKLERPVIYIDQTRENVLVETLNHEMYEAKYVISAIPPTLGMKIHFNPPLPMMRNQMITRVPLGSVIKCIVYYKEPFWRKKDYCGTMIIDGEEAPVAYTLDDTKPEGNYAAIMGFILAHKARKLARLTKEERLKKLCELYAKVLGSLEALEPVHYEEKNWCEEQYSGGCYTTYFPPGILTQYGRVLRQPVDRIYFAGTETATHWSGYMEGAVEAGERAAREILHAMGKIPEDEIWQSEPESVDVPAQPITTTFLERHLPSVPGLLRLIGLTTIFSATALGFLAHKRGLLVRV
Put plainly: Activity on recombinant human MAO-B, method similar to the VAP-1 assay. As to conditions: substrate 1 mM benzylamine; read-out: Inhibitory Activity (IC50, nM) MAO-B. In short, it runs like this: as §1

Assay [3] deals with T4, recombinant human DAO (diamine oxidase) (Homo sapiens, UniProt P19801).
T4 construct: purchased R&D systems
T4 sequence (P19801 20-751): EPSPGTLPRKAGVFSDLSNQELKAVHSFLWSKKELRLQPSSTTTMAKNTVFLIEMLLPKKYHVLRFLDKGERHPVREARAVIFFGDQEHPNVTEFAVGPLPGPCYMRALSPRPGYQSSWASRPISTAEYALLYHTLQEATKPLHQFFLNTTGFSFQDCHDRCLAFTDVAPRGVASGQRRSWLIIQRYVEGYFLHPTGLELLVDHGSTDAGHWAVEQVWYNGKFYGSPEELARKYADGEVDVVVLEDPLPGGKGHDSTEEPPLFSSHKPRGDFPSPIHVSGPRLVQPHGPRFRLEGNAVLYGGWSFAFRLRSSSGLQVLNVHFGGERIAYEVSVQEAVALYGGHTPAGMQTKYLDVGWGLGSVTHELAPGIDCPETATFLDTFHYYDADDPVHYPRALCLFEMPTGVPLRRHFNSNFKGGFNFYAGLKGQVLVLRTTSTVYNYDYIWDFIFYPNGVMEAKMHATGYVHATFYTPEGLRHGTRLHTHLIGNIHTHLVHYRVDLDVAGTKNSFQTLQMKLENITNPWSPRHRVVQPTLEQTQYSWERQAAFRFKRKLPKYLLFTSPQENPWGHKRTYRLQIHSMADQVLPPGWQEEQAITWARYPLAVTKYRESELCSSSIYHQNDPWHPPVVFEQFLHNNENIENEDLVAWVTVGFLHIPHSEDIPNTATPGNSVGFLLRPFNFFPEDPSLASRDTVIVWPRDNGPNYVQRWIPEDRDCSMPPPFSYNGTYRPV
Put plainly: Activity on recombinant human DAO, method similar to the VAP-1 assay. As to conditions: substrate 1 mM putrescine; read-out: Inhibitory Activity (IC50, nM) DAO. In a few lines:
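Inhibition of recombinant human diamine oxidase (DAO, R&D systems) was assessed by the same approach as the VAP-1 assay, using 1 mM putrescine as substrate. Hydrogen peroxide formed was detected through an HRP-coupled Amplex Red reaction yielding fluorescent resorufin, read at 544 nm excitation and 590 nm emission. IC50 values came from four-parameter logistic fitting in GraphPad Prism.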

One may read the IC50 as the concentration at which inhibition is half-maximal.

As for `NC/C(=C\F)Cn1ncn(Cc2ccc(-c3ccc(=O)n(C4CC4)c3)s2)c1=O` [Example 195, 5-[5-({1-[(2E)-2-(aminomethyl)-3-fluoroprop-2-en-1-yl]-5-oxo-1,5-dihydro-4H-1,2,4-triazol-4-yl}methyl)thiophen-2-yl]-1-cyclopropylpyridin-2(1H)-one], the IC50 is 1.6 nM on recombinant human VAP-1, over 100000 nM in assay [1], 2300 nM in assay [2] and 710 nM in assay [3].
Turning to `NC/C(=C\F)Cn1ncn(Cc2ccc(-c3cc4c(cc3F)NC(=O)CC4)s2)c1=O` [Example 146, 6-[5-({1-[(2E)-2-(aminomethyl)-3-fluoroprop-2-en-1-yl]-5-oxo-1,5-dihydro-4H-1,2,4-triazol-4-yl}methyl)thiophen-2-yl]-7-fluoro-3,4-dihydroquinolin-2(1H)-one], the IC50 at recombinant human VAP-1 was 0.4 nM; in assay [1], over 100000 nM; in assay [2] it was 3900 nM; in assay [3], 1300 nM.
On to `NC/C(=C\F)Cn1ncn(Cc2ccc(-c3ccncc3)s2)c1=O` [Example 160, 2-[(2E)-2-(aminomethyl)-3-fluoroprop-2-en-1-yl]-4-{[5-(pyridin-4-yl)thiophen-2-yl]methyl}-2,4-dihydro-3H-1,2,4-triazol-3-one], for which the IC50 was 2.2 nM on recombinant human VAP-1, over 100000 nM in assay [1], 51 nM in assay [2] and 1100 nM in assay [3].
In the same order, the values of `NC/C(=C\F)Cn1ncn(Cc2ccc(-c3cc(F)c4c(c3)NC(=O)CO4)s2)c1=O` [Example 94, 6-[5-[[1-[(E)-2-(aminomethyl)-3-fluoro-allyl]-5-oxo-1,2,4-triazol-4-yl]methyl]-2-thienyl]-8-fluoro-4H-1,4-benzoxazin-3-one hydrochloride] are 0.3 nM, 11000 nM, 1700 nM and 160 nM.
On the same counts, the results for `NC/C(=C\F)Cn1ncn(Cc2ccc(-c3cccc(-c4cc[nH]n4)c3)s2)c1=O` [Example 184, 2-[(2E)-2-(aminomethyl)-3-fluoroprop-2-en-1-yl]-4-({5-[3-(1H-pyrazol-3-yl)phenyl]thiophen-2-yl}methyl)-2,4-dihydro-3H-1,2,4-triazol-3-one] are 3.4 nM, over 100000 nM, 330 nM and 3800 nM.
`NC/C(=C\F)Cn1ncn(Cc2ccc(C#Cc3ccc4c(n3)OCCN4)s2)c1=O` [Example 136, 2-[(E)-2-(aminomethyl)-3-fluoro-allyl]-4-[[5-[2-(2,3-dihydro-1H-pyrido[2,3-b][1,4]oxazin-6-yl)ethynyl]-2-thienyl]methyl]-1,2,4-triazol-3-one hydrochloride]: the half-maximal inhibitory concentration (IC50) on recombinant human VAP-1 amounted to 1.5 nM; in assay [1], 20000 nM; in assay [2], 640 nM; in assay [3], 790 nM.
For `NC/C(=C\F)Cn1ncn(Cc2ccc(-c3ccc(OCC(F)(F)F)nc3)s2)c1=O` [Example 47, 2-[(2E)-2-(aminomethyl)-3-fluoroprop-2-en-1-yl]-4-(5-[6-(2,2,2-trifluoroethoxy)pyridin-3-yl]thiophen-2-ylmethyl)-2,4-dihydro-3H-1,2,4-triazol-3-one hydrochloride], the IC50 at recombinant human VAP-1 was 4.7 nM; in assay [1] it was over 100000 nM; in assay [2], 980 nM; in assay [3], 530 nM.
On the same counts, the results for `NC/C(=C\F)Cn1ncn(Cc2ccc(-c3ccc4c(c3Cl)NC(=O)CO4)s2)c1=O` [Example 95, 6-[5-[[1-[(E)-2-(aminomethyl)-3-fluoro-allyl]-5-oxo-1,2,4-triazol-4-yl]methyl]-2-thienyl]-5-chloro-4H-1,4-benzoxazin-3-one hydrochloride] are 0.25 nM, 25000 nM, 370 nM and 240 nM.
Consider `CN1C(=O)CCc2cc(-c3ccc(CCn4cnn(C/C(=C/F)CN)c4=O)s3)ccc21` [Example 219, 6-[5-(2-{1-[(2E)-2-(aminomethyl)-3-fluoroprop-2-en-1-yl]-5-oxo-1,5-dihydro-4H-1,2,4-triazol-4-yl}ethyl)thiophen-2-yl]-1-methyl-3,4-dihydroquinolin-2(1H)-one], for which the IC50 at recombinant human VAP-1 was 0.5 nM; in assay [1], over 100000 nM; in assay [2], 38000 nM; in assay [3], 120 nM.
In the same order, the values of `Cc1c(-c2ccc(Cn3cnn(C/C(=C/F)CN)c3=O)s2)ccc2c1NC(=O)CO2` [Example 92, 6-[5-[[1-[(E)-2-(aminomethyl)-3-fluoro-allyl]-5-oxo-1,2,4-triazol-4-yl]methyl]-2-thienyl]-5-methyl-4H-1,4-benzoxazin-3-one hydrochloride] are 0.2 nM, 29000 nM, 600 nM and 350 nM.
